This is an account of results in patent EP0451130A2, “Use of amiloride and other pyrazine derivatives for preventing or treating ocular neovascularization” (priority 1990, dated 1991).

The target in one assay is T1, human uPA (Homo sapiens, UniProt P00749).
T1 construct: purchased
Kind of assay: in vitro uPA chromogenic substrate assay (glutaryl-glycyl-arginyl-p-nitroanilide, absorbance 405nm). Type of assay: biochemical. The settings on record: for inhibition at 20 µM: read-out: % INHIBITION OF uPA ACTIVITY 20 mM INHIBITOR; for inhibition at 100 µM: read-out: % INHIBITION OF uPA ACTIVITY 100 mM INHIBITOR
The text has this:
The values for the relative inhibitions contained in Table III are obtained by the following procedure.
An in vitro assay employs a commercially available synthetic chromogenic substrate, glutaryl-glycyl-arginyl-p-nitroanilide, and a commercially available human uPA. The uPA catalyzes the hydrolysis of the bond between the arginyl and p-nitroanilide moieties. The p-nitroaniline released upon hydrolysis of the substrate absorbs light at a wavelength of 405nm. The enzymatic activity is quantitated as a function of the increase in the absorbance of the solution at 405nm as measured with a spectrophotometer.
In order to obtain the data, stock solutions of the amiloride-related pyrazine derivative compounds were included in the assays, and the release of p-nitroaniline as followed by the change in absorbance at 405nm of the reaction mixture was compared to a control reaction mixture in which no amiloride-related pyrazine derivative compound was present.

A further assay has as its system Corneal Vessels. The assay can be described thus: rabbit corneal neovascularization model (PGE1 slow release pellet, amiloride agarose pellet implant). Format: in vivo. The conditions noted are these: result in words. The text has this:
A series of experiments have been conducted employing a rabbit model.

Assay [1] has as its target tissue-type plasminogen activator (tPA) (Homo sapiens, UniProt P00750). The settings on record: in vitro, result in words; cited from earlier work.
Another assay has as its target plasmin (Homo sapiens, UniProt P00747). The settings on record: in vitro, result in words; cited from earlier work.
For a further assay, the target named is plasma kallikrein (Homo sapiens, UniProt P03952). The settings on record: in vitro, result in words; cited from earlier work.
Sequence of plasma kallikrein (P03952 20-638, species assumed): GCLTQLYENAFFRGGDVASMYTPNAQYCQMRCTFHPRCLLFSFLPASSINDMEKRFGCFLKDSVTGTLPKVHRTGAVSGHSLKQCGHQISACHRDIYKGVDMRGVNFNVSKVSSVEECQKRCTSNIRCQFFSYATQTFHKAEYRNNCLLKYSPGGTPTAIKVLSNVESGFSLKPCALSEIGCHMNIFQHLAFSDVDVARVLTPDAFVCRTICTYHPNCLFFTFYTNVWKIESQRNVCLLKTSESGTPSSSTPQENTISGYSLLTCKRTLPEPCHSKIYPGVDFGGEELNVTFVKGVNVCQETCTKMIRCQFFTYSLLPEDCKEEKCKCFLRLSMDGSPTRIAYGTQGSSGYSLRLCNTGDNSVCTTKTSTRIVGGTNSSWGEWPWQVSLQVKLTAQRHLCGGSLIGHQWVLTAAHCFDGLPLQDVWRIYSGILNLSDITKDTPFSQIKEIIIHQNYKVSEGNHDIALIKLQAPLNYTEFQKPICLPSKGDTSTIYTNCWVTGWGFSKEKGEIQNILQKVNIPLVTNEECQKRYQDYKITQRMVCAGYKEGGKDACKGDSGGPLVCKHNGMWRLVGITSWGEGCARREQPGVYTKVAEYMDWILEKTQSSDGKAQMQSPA
Another assay deals with thrombin (Homo sapiens, UniProt P00734). The conditions noted are these: in vitro, result in words; cited from earlier work.
The next assay concerns circulating cancer cells. The conditions noted are these: continuously administered orally to rats, result in words; cited from earlier work.

Sequence of tissue-type plasminogen activator (tPA) (P00750 36-562, species assumed): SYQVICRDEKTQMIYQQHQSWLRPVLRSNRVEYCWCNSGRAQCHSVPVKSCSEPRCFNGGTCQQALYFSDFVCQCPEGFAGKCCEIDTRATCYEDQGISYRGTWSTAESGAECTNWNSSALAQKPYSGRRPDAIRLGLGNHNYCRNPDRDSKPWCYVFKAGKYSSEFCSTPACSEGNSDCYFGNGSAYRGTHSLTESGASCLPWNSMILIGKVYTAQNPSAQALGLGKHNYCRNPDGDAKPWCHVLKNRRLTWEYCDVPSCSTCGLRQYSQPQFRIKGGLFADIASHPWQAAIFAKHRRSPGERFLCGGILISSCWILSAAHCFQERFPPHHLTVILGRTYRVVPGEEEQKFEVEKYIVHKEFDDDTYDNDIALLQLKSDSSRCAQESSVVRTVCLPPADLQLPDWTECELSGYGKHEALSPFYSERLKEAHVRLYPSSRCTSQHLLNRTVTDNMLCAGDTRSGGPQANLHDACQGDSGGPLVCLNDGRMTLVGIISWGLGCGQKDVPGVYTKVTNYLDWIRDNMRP
Sequence of plasmin (P00747 97-580): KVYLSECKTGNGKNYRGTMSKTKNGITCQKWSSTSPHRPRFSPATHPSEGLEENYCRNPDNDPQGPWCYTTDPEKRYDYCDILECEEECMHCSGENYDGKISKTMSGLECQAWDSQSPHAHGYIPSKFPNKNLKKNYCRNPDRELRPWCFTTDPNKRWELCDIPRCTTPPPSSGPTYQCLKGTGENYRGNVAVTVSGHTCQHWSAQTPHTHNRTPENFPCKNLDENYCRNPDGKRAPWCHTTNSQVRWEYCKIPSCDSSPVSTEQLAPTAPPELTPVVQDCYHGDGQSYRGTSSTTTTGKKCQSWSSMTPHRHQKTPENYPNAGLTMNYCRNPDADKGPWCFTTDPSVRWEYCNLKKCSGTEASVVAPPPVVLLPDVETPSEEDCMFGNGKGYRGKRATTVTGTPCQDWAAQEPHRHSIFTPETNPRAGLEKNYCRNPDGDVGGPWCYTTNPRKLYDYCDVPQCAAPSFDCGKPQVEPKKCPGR
Sequence of plasmin (P00747 581-810): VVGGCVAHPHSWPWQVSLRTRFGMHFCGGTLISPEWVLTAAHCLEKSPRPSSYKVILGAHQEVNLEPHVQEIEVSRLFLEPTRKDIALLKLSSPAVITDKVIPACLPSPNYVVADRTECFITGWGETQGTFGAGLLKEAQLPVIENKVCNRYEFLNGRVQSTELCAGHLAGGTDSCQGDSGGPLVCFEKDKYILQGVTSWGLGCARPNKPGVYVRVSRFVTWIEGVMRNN

In general, inhibition refers to how much of the control response was suppressed. Consider `NC(N)=NC(=O)c1nccnc1N` [5,6-HA, 3-amino-N-(diaminomethylene)pyrazinecarboxamide], for which, on human uPA, the inhibition at 20 µM worked out at 2.1% and the inhibition at 100 µM worked out at 11.1%.

On to `N=C(N)NC(=O)c1nc(Cl)c(N)nc1N` [Amiloride, 3,5-diamino-6-chloro-N--(diaminomethylene)pyrazinecarboxamide], for which the inhibition of neovascularization entry in the assay on Corneal Vessels (amiloride-HCl·2H₂O agarose pellets in rabbit cornea) is “inhibited neovascularization in a dose dependent manner”. Besides, the “reversal of neovascularization already produced” value in the assay with Corneal Vessels was “reverse a portion of the neovascularization that had already been produced”. The “inhibition of tissue-type plasminogen activator (tPA)” value in assay [1] was “does not inhibit”. Further, on plasmin, the inhibition of plasmin entry is “does not inhibit”. For the same compound, the “inhibition of plasma kallikrein” value at plasma kallikrein was “does not inhibit”. Also, on thrombin, the inhibition of thrombin result is reported as “does not inhibit”. In addition, in the assay on circulating cancer cells, the “inhibition of metastasis into the lung” value is recorded as “inhibited the metastasis of circulating cancer cells into the lung of the rat”.

With `NC(=NCc1ccccc1)NC(=O)c1nc(Cl)c(N)nc1N` [BENZAMIL, 3,5-diamino-6--chloro-N-(benzylaminoaminomethylene)pyrazinecarboxamide], at human uPA, the inhibition at 20 µM was found to be 1.2% and the inhibition at 100 µM stood at 7.7%.

Regarding `Cc1ccc(CNC(=N)NC(=O)c2nc(Cl)c(NCc3ccc(Cl)cc3)nc2N)c(C)c1` [CBDMB, 3-amino-5-(N-4-chlorobenzylamino)-6-chloro-N-[(2,4-dimethylbenzyl)aminoaminomethylene]pyrazinecarboxamide], on human uPA, the inhibition at 20 µM worked out at 41.7% and the inhibition at 100 µM is 63.4%.

As to `NC(N)=NC(=O)c1nc(Cl)c(Cl)nc1N` [Compound 5-ClA, 3--amino-5,6-dichloro-N-(diaminomethylene)pyrazinecarboxamide], on human uPA, the inhibition at 20 µM amounted to 5% and the inhibition at 100 µM amounted to 20.7%.

With `NC(N)=NC(=O)c1nc(Br)cnc1N` [Compound 6-Br-5-HA, 3-amino-6-bromo-N--(diaminomethylene)pyrazinecarboxamide], at human uPA, the inhibition at 20 µM turned out to be 1% and the inhibition at 100 µM is 7.7%.

As for `NC(N)=NC(=O)c1nc(Br)c(N)nc1N` [Compound 6-BrA, 3,5-diamino-6-bromo-N-(diaminomethylene)pyrazinecarboxamide], on human uPA, the inhibition at 20 µM came to 65.6% and the inhibition at 100 µM was determined as 69.9%.

As for `NC(N)=NC(=O)c1nc(F)c(N)nc1N` [Compound 6-FA, 3,5-diamino-6-fluoro-N-(diaminomethylene)pyrazinecarboxamide], on human uPA, the inhibition at 20 µM worked out at 7.1% and the inhibition at 100 µM was 27.9%.

`NC(N)=NC(=O)c1ncc(N)nc1N` [Compound 6-HA, 3,5-diamino-N-(diaminomethylene)pyrazinecarboxamide]: on human uPA, the inhibition at 20 µM came to 15.3% and the inhibition at 100 µM was 38.2%.

Turning to `NC(N)=NC(=O)c1nc(I)c(N)nc1N` [Compound 6-IA, 3,5-diamino-6-iodo-N-(diaminomethylene)pyrazinecarboxamide], on human uPA (20 mM INHIBITOR), the “% INHIBITION OF uPA ACTIVITY 20 mM INHIBITOR” value was found to be 64.4%. On human uPA (100 mM INHIBITOR), the “% INHIBITION OF uPA ACTIVITY 100 mM INHIBITOR” value is listed as 83.9%.

As for `CN(C)c1nc(N)c(C(=O)N=C(N)N)nc1Cl` [DMA, 3-amino-5-dimethylamino-6-chloro-N--(diaminomethylene)pyrazinecarboxamide], on human uPA, the inhibition at 20 µM is 41.1% and the inhibition at 100 µM stood at 48.3%.

`CCN(c1nc(N)c(C(=O)N=C(N)N)nc1Cl)C(C)C` [EIPA, 3-amino-5-(N-ethyl-N--isopropylamino)-6-chloro-N-(diaminomethylene)pyrazinecarboxamide]: on human uPA, the inhibition at 20 µM came out at 28.3% and the inhibition at 100 µM worked out at 56%.

Turning to `NC(N)=NC(=O)c1nc(Cl)c(N2CCCCCC2)nc1N` [HMA, 3-amino-5-(1-homopiperidinyl)-6--chloro-N-(diaminomethylene)pyrazinecarboxamide], on human uPA, the inhibition at 20 µM came to 51.1% and the inhibition at 100 µM was 77%.

As for `CN(C)c1nc(N)c(C(=O)N=C(N)N)nc1I` [IDMA, 3-amino-5-(N,N-dimethylamino)-6-iodo-N--(diaminomethylene)pyrazinecarboxamide], at human uPA, the inhibition at 20 µM came out at 40.3% and the inhibition at 100 µM amounted to 73.1%.

For `CN(CC(=O)N=C(N)N)c1nc(N)c(C(=O)N=C(N)N)nc1Cl` [MGCMA, 3-amino-6-chloro-5-[N-methyl-N-(guanidinocarbonylmethylamino)]-N(diaminomethylene)pyrazine carboxamide], at human uPA, the inhibition at 20 µM came out at 29.1% and the inhibition at 100 µM was 43%.

Turning to `CC(C)CN(C)c1nc(N)c(C(=O)N=C(N)N)nc1Cl` [MIBA, 3-amino--5-(N-methyl-N-isobutylamino)-6-chloro-N-(diaminomethylene)pyrazinecarboxamide], at human uPA, the inhibition at 20 µM was 18.7% and the inhibition at 100 µM was 57.3%.

For `NC(N)=NNC(=O)c1nc(Cl)c(N)nc1N` [MK-875, 3,5-diamino-6-chloro-N²--(diaminomethylene)pyrazinecarbonyl hydrazide], at human uPA, the inhibition at 20 µM came to 1.9% and the inhibition at 100 µM was 7.3%.

For the compound `NC(=Nc1ccccc1)NC(=O)c1nc(Cl)c(N)nc1N` [PHENAMIL, 3,5-diamino-6-chloro-N--(phenylaminoaminomethylene)pyrazinecarboxamide], on human uPA, the inhibition at 20 µM stood at 1.7% and the inhibition at 100 µM was found to be 5.5%.
